Source: patent US7803801B2, “Aminopyridine compounds having Syk inhibitory activity” (Japan Tobacco, Inc., priority 2005, dated 2010)

How the values were obtained:
[1] = biological target: GST-Syk Full Protein (human) (Homo sapiens, UniProt P43405); assay: Syk kinase inhibition test (HTRF method); assay type: biochemical; conditions: HTRF, 100 μM ATP, 30 min room temperature, average; read-out: sykHTRF ave IC50
Outline: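 HTRF read-out: after EDTA termination and 1 h with XL665-streptavidin and Eu-anti-phosphotyrosine, the 665/620 nm ratio was measured. The reaction ran 30 min at 20–25 °C with final 6.4 nM human GST-Syk, 250 nM biotinylated peptide, 100 μM ATP, pH 7.0 HEPES buffer, 2% DMSO.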

[2] = system: cultured human mast cells; assay: Degranulation inhibition test using cultured human mast cells (IgE cross-linking, β-Hexosaminidase release); assay type: cell-based; conditions: Mast cell; cultured human mast cells, anti-hIgE stimulation, β-Hexosaminidase index, average; read-out: human degranulation ave. IC50
Outline: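 Degranulation was triggered by anti-hIgE (10 μg/mL final, 30 min, 37 °C) after a 10-min compound pretreatment (DMSO 0.1%) of cord-blood CD34+-derived mast cells primed 5 days with IL-4 and IgE. β-Hexosaminidase in supernatant was measured with p-nitrophenyl-GlcNAc substrate (A405), expressed against water-lysed total; IC50 (M).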

Row | SMILES | IC50 [1] [nM] | IC50 [2] [nM]
1 | Cc1ccnc(Nc2cccc(-c3cnc(C(C)(C)NC(=O)OC(C)(C)C)s3)n2)c1 [Compound A-112] | > 1000 | > 1000
2 | CC(=O)N[C@@H](C)c1nc(N)c(-c2cccc(Nc3cc(C)ccn3)n2)s1 [Compound A-115] | > 1000 | > 1000
3 | Cc1ccnc(Nc2cccc(-c3sc([C@H](C)NC(=O)CCC(=O)O)nc3C)n2)c1 [Compound A-116] | > 1000 | > 1000
4 | CC(=O)N[C@@H](C)c1nc(C(N)=O)c(-c2cccc(Nc3cc(C)ccn3)n2)s1 [Compound A-117] | > 1000 | > 1000
5 | CC(=O)Nc1nc([C@H](C)NC(C)=O)sc1-c1cccc(Nc2cc(C)ccn2)n1 [Compound A-119] | > 1000 | > 1000
6 | CCOC(=O)CCC(=O)N[C@@H](C)c1ncc(-c2cccc(Nc3cc(C)ccn3)n2)s1 [Compound A-120] | > 1000 | > 1000
7 | CCOC(=O)CC(=O)N[C@@H](C)c1ncc(-c2cccc(Nc3cc(C)ccn3)n2)s1 [Compound A-122] | > 1000 | > 1000
8 | CC(=O)N[C@@H](C)c1nc(C(C)=O)c(-c2cccc(Nc3cc(C)ccn3)n2)s1 [Compound A-126] | > 1000 | > 1000
9 | Cc1ccnc(Nc2cccc(-c3cnc(CCCCCNC(=O)OC(C)(C)C)s3)n2)c1 [Compound A-127] | > 1000 | > 1000
10 | COC(=O)CCCc1ncc(-c2cccc(Nc3cc(C)ccn3)n2)s1 [Compound A-130] | 100 to 1000 | > 1000
11 | Cc1ccnc(Nc2cccc(-c3cnc(CCCC(=O)O)s3)n2)c1 [Compound A-131] | 100 to 1000 | > 1000
12 | COc1ccc(C[C@H](N)c2ncc(-c3cccc(Nc4cc(C)ccn4)n3)s2)cc1 [Compound A-134] | 100 to 1000 | > 1000
13 | COc1ccc(C[C@H](NC(C)=O)c2ncc(-c3cccc(Nc4cc(C)ccn4)n3)s2)cc1 [Compound A-136] | 100 to 1000 | > 1000
14 | COc1ccc(CCc2ncc(-c3cccc(Nc4cc(C)ccn4)n3)s2)cc1 [Compound A-137] | 100 to 1000 | > 1000
15 | COc1ccc(C[C@H](N)c2ncc(-c3cccc(Nc4cc(C)ccn4)n3)s2)cc1OC [Compound A-138] | 100 to 1000 | > 1000

Results, then the compound that gave them:

Row | IC50 [1] [nM] | IC50 [2] [nM] | SMILES
16 | < 100 | 100 to 1000 | Cc1ccnc(Nc2cccc(-c3cnc([C@H]4CC[C@H](C(N)=O)CC4)s3)n2)c1 [Compound A-111, trans-4-{5-[6-(4-methylpyridin-2-ylamino)pyridin-2-yl]thiazol-2-yl}cyclohexanecarboxamide]
17 | 100 to 1000 | 100 to 1000 | Cc1ccnc(Nc2cccc(-c3cnc(C(C)(C)N)s3)n2)c1 [Compound A-113]
18 | 100 to 1000 | > 1000 | CC(=O)NC(C)(C)c1ncc(-c2cccc(Nc3cc(C)ccn3)n2)s1 [Compound A-114]
19 | 100 to 1000 | > 1000 | Cc1ccnc(Nc2cccc(-c3cnc([C@H](C)NC(=O)CC(=O)O)s3)n2)c1 [Compound A-123]
20 | 100 to 1000 | > 1000 | Cc1ccnc(Nc2cccc(-c3cnc(C(=O)CCC(=O)O)s3)n2)c1 [Compound A-124]
21 | < 100 | > 1000 | Cc1ccnc(Nc2cccc(-c3cnc(CCCCCN)s3)n2)c1 [Compound A-128, 5-{5-[6-(4-methylpyridin-2-ylamino)pyridin-2-yl]thiazol-2-yl}pentylamine]
22 | 100 to 1000 | > 1000 | CC(=O)NCCCCCc1ncc(-c2cccc(Nc3cc(C)ccn3)n2)s1 [Compound A-129]
23 | < 100 | 100 to 1000 | Cc1ccnc(Nc2cccc(-c3cnc(CCCCO)s3)n2)c1 [Compound A-132, 4-{5-[6-(4-methylpyridin-2-ylamino)pyridin-2-yl]thiazol-2-yl}butan-1-ol]
24 | < 100 | 100 to 1000 | Cc1ccnc(Nc2cccc(-c3cnc(CCc4ccc(O)cc4)s3)n2)c1 [Compound A-135, 4-(2-{5-[6-(4-methylpyridin-2-ylamino)pyridin-2-yl]thiazol-2-yl}ethyl)phenol]
